In article PMC11940309, “Endocrine-Disrupting Activities of Flavones on Steroid Receptors: Structural Requirements and Synthesis of Novel Flavone with Improved Estrogenic Activity” (Biomedicines, 2025):
Several values for one entry are separate records, joined by “and”; a condition that tells them apart may be missing. Equal entries are not always repeated. Where two headings read alike, the source gives them in different places.

Assays:
[1] = tested on: estrogen receptor (ER); experiment: ER-mediated luciferase reporter induction in T47D KBluc cells; assay type: cell-based, human; settings: for % ER Induction: relative to 1nM estradiol
Experimental: Experiments testing the effect of flavonoids on estrogen receptor-mediated transcription employed T47D KBluc cells. These cells were maintained in RPMI medium with 10% FBS, penicillin (100 U/mL), and streptomycin (100 μg/mL). For reporter gene experiments, cells were detached as above and replated at 50% confluency in phenol red-free RPMI media with 10% charcoal-stripped FBS and antibiotics (day one). All subsequent steps used phenol red-free medium and trypsin. On day three, the medium was replaced with fresh medium. On day five, cells were washed with PBSE, detached, resuspended, diluted, and replated in the phenol red-free RPMI with charcoal-stripped serum (50,000 cells per well as above).
(§1) For all cell lines, cell harvesting and the luminescence assay for alkaline phosphatase and/or luciferase were performed as previously described in detail. Each condition was performed in quadruplicate. […] Percent inhibition is 100 minus the percent induction.

[2] = target: T1, human AR (Homo sapiens, UniProt P10275); experiment: AR-mediated induction of PSA-luciferase reporter by R1881 in HeLa13 cells; assay type: cell-based; settings: for inhibition at 1 µM / inhibition at 4 µM: read-out: % Inhibition of AR-Mediated Gene Induction
T1 construct: expressed in transfected cells; host or cells: HeLa13 (HeLa 13)
T1 sequence (P10275 1-920): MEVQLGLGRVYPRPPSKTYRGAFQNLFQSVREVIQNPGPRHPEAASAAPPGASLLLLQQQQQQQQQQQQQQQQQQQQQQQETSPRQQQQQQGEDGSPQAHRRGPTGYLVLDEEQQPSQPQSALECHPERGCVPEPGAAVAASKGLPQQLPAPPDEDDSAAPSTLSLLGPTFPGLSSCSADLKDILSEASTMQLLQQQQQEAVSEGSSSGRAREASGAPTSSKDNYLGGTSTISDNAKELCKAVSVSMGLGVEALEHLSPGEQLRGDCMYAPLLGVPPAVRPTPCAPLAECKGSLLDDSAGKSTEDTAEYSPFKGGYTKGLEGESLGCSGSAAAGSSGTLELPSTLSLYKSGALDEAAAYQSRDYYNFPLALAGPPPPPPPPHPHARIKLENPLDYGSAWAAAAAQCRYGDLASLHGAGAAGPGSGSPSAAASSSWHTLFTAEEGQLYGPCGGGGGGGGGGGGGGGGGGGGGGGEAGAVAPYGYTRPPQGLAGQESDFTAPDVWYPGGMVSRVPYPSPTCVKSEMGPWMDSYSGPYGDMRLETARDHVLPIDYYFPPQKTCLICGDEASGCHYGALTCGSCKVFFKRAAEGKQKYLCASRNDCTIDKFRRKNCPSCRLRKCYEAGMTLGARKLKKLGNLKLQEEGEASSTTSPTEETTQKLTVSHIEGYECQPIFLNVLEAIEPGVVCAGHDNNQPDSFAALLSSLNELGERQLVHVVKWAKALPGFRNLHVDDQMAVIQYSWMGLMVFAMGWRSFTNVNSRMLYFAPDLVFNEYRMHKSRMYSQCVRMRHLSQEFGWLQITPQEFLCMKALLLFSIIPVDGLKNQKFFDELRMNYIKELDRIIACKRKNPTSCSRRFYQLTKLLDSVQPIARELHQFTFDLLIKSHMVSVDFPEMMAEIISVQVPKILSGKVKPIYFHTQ
Source text: (§2) The engineered T47D breast cancer cell lines employed for the assessment of flavonoid activity on glucocorticoid receptor (GR) and progesterone receptor (PR) signaling permitted the facile quantitation transcription of both an endogenous gene and a stably integrated reporter gene. […] The T47D K5pLuc cell line responds to progestins via induction of a stably integrated cytokeratin 5-luciferase reporter gene. […] For assessment of the effect of the test compounds on androgen receptor (AR) signaling, we used the HeLa13 cell line engineered to stably express human AR and a PSA-luciferase reporter gene containing a 4× multimerized PSA upstream enhancer ARE1 linked to the E4 TATA box and luciferase gene.
Experiments testing the effect of flavonoid on androgen receptor-mediated transcription employed HeLa 13 cells maintained in MEM medium supplemented with 10% FBS, 0.5 mg/mL G418, 0.05 mg/mL Hygromycin B, […], and streptomycin (100 μg/mL). For reporter gene experiments, cells were replated at a 1:5 dilution in MEM medium with 5% charcoal-stripped FBS and the antibiotics mentioned above. The medium was changed the next day. After 48 h, the cells were washed with PBSE, detached with phenol red-free trypsin, pelleted, resuspended and plated in 96 well plates as above. Hormone and flavonoid treatments were performed as described above with the HeLa 13 medium and charcoal-stripped FBS. When treated with hormone, the synthetic androgen, R1881, was used at 1.0 nM. Hormone treatment was for 20 h at which time cells were harvested for assay of luciferase.
as §1

[3] = target: T2, progesterone receptor (PR) (Homo sapiens, UniProt P06401); experiment: PR-mediated induction of transcription by R5020 in T47D K5pLuc cells (luciferase reporter and endogenous alkaline phosphatase); assay type: cell-based; settings: T47D, R5020 1.0 nM
T2 sequence (P06401 679-933 limits assumed): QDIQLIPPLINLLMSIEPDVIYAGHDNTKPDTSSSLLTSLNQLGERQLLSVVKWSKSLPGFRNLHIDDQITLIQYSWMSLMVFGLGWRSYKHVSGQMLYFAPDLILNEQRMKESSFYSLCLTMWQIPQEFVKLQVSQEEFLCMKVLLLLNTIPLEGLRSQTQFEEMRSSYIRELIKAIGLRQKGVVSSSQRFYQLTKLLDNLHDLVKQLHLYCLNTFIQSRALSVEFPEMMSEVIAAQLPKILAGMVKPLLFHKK
Source text: as §2
Experiments testing the effect of flavonoids on progesterone receptor-mediated transcription employed T47D K5pluc cells. The protocol was the same as that for T47D (A1-2) cells except the medium was Dulbecco’s Modified Eagle’s Medium supplemented with 10% FBS, insulin (10 nM), puromycin 200 ng/mL, nonessential amino acids, penicillin (100 U/mL), and streptomycin (100 μg/mL). When treated with hormone, the synthetic progestin, R5020, was used at 1.0 nM. Hormone treatment was for 20 h at which time cells were harvested for assay of alkaline phosphatase and luciferase.
as §1

[4] = target: T3, glucocorticoid receptor (GR) (Rattus norvegicus, UniProt P06536); experiment: GR-mediated induction of transcription by dexamethasone in T47D (A1-2) cells (luciferase reporter and endogenous alkaline phosphatase); assay type: cell-based, human; settings: T47D, dexamethasone 1.0 nM, read-out: % Inhibition of GR Induction
T3 construct: host or cells: T47D (A1-2)
T3 sequence (P06536 1-795): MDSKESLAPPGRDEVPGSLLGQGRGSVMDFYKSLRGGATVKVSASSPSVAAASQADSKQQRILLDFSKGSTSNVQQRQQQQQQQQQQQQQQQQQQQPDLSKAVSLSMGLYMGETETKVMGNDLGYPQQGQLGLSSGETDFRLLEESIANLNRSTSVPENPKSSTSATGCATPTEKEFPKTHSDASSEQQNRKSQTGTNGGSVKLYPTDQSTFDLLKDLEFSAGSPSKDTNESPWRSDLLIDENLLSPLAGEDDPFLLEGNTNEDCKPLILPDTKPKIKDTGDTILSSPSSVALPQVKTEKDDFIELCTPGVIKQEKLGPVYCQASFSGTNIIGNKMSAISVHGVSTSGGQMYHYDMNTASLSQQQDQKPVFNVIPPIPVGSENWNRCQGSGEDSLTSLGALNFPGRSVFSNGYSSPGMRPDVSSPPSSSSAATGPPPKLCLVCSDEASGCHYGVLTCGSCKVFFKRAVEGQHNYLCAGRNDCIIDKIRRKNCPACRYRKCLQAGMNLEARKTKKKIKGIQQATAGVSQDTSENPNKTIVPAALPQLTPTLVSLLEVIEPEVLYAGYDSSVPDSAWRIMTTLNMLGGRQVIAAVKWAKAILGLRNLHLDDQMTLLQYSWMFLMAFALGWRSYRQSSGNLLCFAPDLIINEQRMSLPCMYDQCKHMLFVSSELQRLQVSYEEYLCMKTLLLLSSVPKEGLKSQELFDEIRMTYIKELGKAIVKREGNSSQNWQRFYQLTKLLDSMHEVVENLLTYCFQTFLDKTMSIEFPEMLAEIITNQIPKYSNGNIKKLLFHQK
Source text: as §2
For assessment of the effect of flavones on glucocorticoid receptors, T47D (A1-2) cells were maintained in Minimal Essential Medium, 10% Fetal Bovine Serum (FBS), 0.2 mg/mL G418, penicillin (100 U/mL), and streptomycin (100 μg/mL). For experiments, medium was removed, and cultures rinsed with Phosphate-Buffered Saline (PBS) + 1.0 mM EDTA (PBSE), detached with trypsin, pelleted, and resuspended in medium to a concentration of 500,000 cells/mL. Aliquots of cell suspension, 100 microliters/well, were transferred into a 96-well, white, flat-bottomed plate and allowed to attach for 24 h. The following day, each well was treated with a 50 microliter aliquot of a test compound diluted in medium. Controls received medium containing DMSO diluted in the same way. For hormone treatment, dexamethasone was diluted in medium and added as 50 microliter aliquots so that the final volume in each well was 200 microliters. The final concentration of dexamethasone was 1.0 nM. Controls received medium without hormone. Hormone treatment was for 20 h at which time cells were harvested for assay of alkaline phosphatase and luciferase.
as §1

Row | SMILES | inhibition at 1 µM ([2]; 1 µM, R1881 1.0 nM) | inhibition at 4 µM ([2]; 4 µM, R1881 1.0 nM) | % ER Induction ([1]; 1 µM) | % ER Induction ([1]; 4 µM) | also measured
1 | O=c1c(O)c(-c2ccc(O)c(O)c2)oc2cc(O)cc(O)c12 [3,5,7,3′,4′-pentahydroxyflavone] | – | – | 3% | 12% | inhibition at 4 µM ([3]; AP (alkaline phosphatase)): 52%; inhibition at 4 µM ([3]; LUC (luciferase)): 47%; inhibition at 8 µM ([3]; AP (alkaline phosphatase)): 79%; inhibition at 8 µM ([3]; LUC (luciferase)): 78%
2 | O=c1c(O)c(-c2ccccc2)oc2ccc(O)cc12 [3,6-dihydroxyflavone] | 35% | 52% | 55% | 94% | –
3 | O=c1c(O)c(-c2ccc(O)cc2)oc2cc(O)ccc12 [3,7,4′-trihydroxyflavone] | -6% | 39% | 86% | 114% | –
4 | COc1ccc(-c2oc3ccc(OC)cc3c(=O)c2O)cc1 [3-hydroxy, 6,4′-dimethoxyflavone] | -17% | 41% | 2% | 3% | –
5 | O=C1CC(c2ccc(O)cc2)Oc2ccccc21 (stereo not shown) [4′-hydroxyflavanone] | – | – | 12% | 109% | inhibition at 1 µM [2]: -8%; inhibition at 4 µM [2]: 0%
6 | COc1ccc(-c2cc(=O)c3c(OC)cccc3o2)cc1 [5,4′-methoxyflavone] | – | – | 1% | 31% | % Inhibition of AR-Mediated Gene Induction ([2]; 1 µM, R1881 1.0 nM): 4%; % Inhibition of AR-Mediated Gene Induction ([2]; 4 µM, R1881 1.0 nM): 53%
7 | O=c1cc(-c2ccc(O)cc2)oc2cc(O)cc(O)c12 [5,7,4′-trihydroxyflavone] | – | – | – | – | inhibition at 4 µM ([4]; AP (alkaline phosphatase)): -19%; inhibition at 4 µM ([4]; LUC (luciferase)): 6%; inhibition at 8 µM ([4]; AP (alkaline phosphatase)): 49%; inhibition at 8 µM ([4]; LUC (luciferase)): 35%
8 | O=c1cc(-c2ccccc2)oc2cccc(O)c12 [5-hydroxyflavone] | – | – | 0% | 4% | inhibition at 4 µM ([4]; AP (alkaline phosphatase)): 38%; inhibition at 4 µM ([4]; LUC (luciferase)): -9%; inhibition at 8 µM ([4]; AP (alkaline phosphatase)): 12%; inhibition at 8 µM ([4]; LUC (luciferase)): -30%; inhibition at 4 µM ([3]; AP (alkaline phosphatase)): 26%; inhibition at 4 µM ([3]; LUC (luciferase)): -23%; inhibition at 8 µM ([3]; AP (alkaline phosphatase)): 61%; inhibition at 8 µM ([3]; LUC (luciferase)): 45%
9 | COc1ccc(-c2cc(=O)c3cc(O)ccc3o2)cc1 [6-hydroxy,4′-methoxyflavone] | 32% | 39% | 63% | 131% | –
10 | C[C@]12CC[C@@H]3c4ccc(O)cc4CC[C@H]3[C@@H]1CC[C@@H]2O [17β-estradiol] | – | – | – | – | potency relative to the 6,4′-dihydroxyflavones ([1]; in the assays used here): over 1000 fold
11 | Cc1c(-c2ccc(O)cc2)oc2ccc(O)cc2c1=O [compound 8, 3-methyl 6,4′-dihydroxyflavone] | – | – | – | – | increase of EC50 relative to 6,4′-dihydroxyflavone [1]: ten-fold or more; reporter gene activity compared with an optimal dose of estradiol ([1]; 1.0 micromolar): super-inducer
12 | O=c1c(F)c(-c2ccc(O)cc2)oc2ccc(O)cc12 [compound 14, 3-fluoro, 6,4′-dihydroxyflavone] | – | – | – | – | EC50 compared to that of genistein [1]: comparable; EC50 ([1]; read-out: EC50, estrogen agonist): ~30 nM and 30 to 100 nM

The next lines start with results.

Row | inhibition at 1 µM ([2]; 1 µM, R1881 1.0 nM) | inhibition at 4 µM ([2]; 4 µM, R1881 1.0 nM) | SMILES | % ER Induction ([1]; 1 µM) | % ER Induction ([1]; 4 µM) | also measured
13 | 3% | 27% | O=c1c(O)c(-c2ccc(O)cc2)oc2ccccc12 [3,4′-dihydroxyflavone] | 13% | 125% | –
14 | -4% | 34% | COc1cccc2oc(-c3ccc(O)cc3)cc(=O)c12 [5-methoxy,4′-hydroxyflavone] | −2% | 10% | –
15 | -8% | 22% | O=C1CC(c2ccccc2)Oc2ccc(O)cc21 (stereo not shown) [6-hydroxyflavanone] | 15% | 111% | –
